Assay results reported in patent publication US9994581B2, “Bromodomain inhibitors” (AbbVie Inc., priority 2013, dated 2018).
Where two headings read alike, the source gives them in different places.

Legend:
[1] = tested on: breast cancer cell line MX-1; test: MX-1 cell line proliferation assay (3-day, Cell Titer Glo); format: cell-based; settings: 72 hours, read-out: Cellular proliferation: EC50
Summary of the method: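 MX-1 cells plated at 5000 cells/well and adhered overnight at 37°, then treated for 3 days with 10-point 3-fold dilutions (final top 3 or 1 μM). Viability by Cell Titer Glo luminescence normalized to DMSO-treated cells; EC50 from sigmoidal curve fit.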

[2] = molecular target: BRD4 (BDI-BDII_K57-K550) (Homo sapiens, UniProt O60885); test: TR-FRET bromodomain binding assay; settings: His-tagged tandem bromodomain, Alexa647-labeled probe; Ki calculated from IC50s, probe Kd and probe concentration
[3] = tested on: LPS induced IL-6 (Interleukin-6) production; test: LPS (lipopolysaccharide) induced IL-6 production mouse assay; settings: oral administration one hour before LPS 2.5 mg/kg i.p., serum IL-6 2 hours after LPS, p < 0.05

Row | EC50 ([1]; Homo sapiens, MX1, MX-1 cells) | Ki [2] | EC50 ([1]; MX-1 cells) | Compound | Inhibition of LPS induced IL-6 production, % inhibition ([3]; CD1 mouse strain) | Inhibition of LPS induced IL-6 production, % inhibition ([3]; SCID mouse strain)
1 | 8.69 nM | 1.25 nM |  | CCS(=O)(=O)c1ccc2c(c1)-c1cn(C)c(=O)cc1OCCCCc1cc(F)cc(F)c1O2 [Example A-20, 17-(ethylsulfonyl)-11,13-difluoro-2-methyl-6,7,8,9-tetrahydrodibenzo[4,5:7,8][1,6]dioxacyclododecino[3,2-c]pyridin-3(2H)-one] | 81% | 
2 |  | 1.51 nM | 9 nM | 17-(ethylsulfonyl)-11-fluoro-2-methyl-6,7,8,9-tetrahydrodibenzo[4,5:7,8][1,6]dioxacyclododecino[3,2-c]pyridin-3(2H)-one [Example A-22] | 83% | 
3 | 9.6 nM | 1.51 nM |  | CCS(=O)(=O)Nc1ccc2c(c1)-c1cn(C)c(=O)cc1OCCCc1cc(F)cc(F)c1O2 [Example A-6, N-(10,12-difluoro-2-methyl-3-oxo-3,6,7,8-tetrahydro-2H-dibenzo[4,5:7,8][1,6]dioxacycloundecino[3,2-c]pyridin-16-yl)ethanesulfonamide] | 86% | 
4 | 5.68 nM | 1.45 nM |  | CCS(=O)(=O)Nc1cnc2c(c1)-c1cn(C)c(=O)cc1OCCCCc1cc(Cl)ccc1O2 [Example A-33, N-(11-chloro-2-methyl-3-oxo-2,3,6,7,8,9-hexahydrobenzo[11,12][1,6]dioxacyclododecino[2,3-b:4,5-c′]dipyridin-17-yl)ethanesulfonamide] | 74% | 
5 | 31.1 nM | 7.54 nM |  | CCS(=O)(=O)c1ccc2c(c1)-c1cn(C)c(=O)cc1OCCCc1cc(Cl)ccc1O2 [Example A-3, 10-chloro-16-(ethylsulfonyl)-2-methyl-7,8-dihydro-2H-dibenzo[4,5:7,8][1,6]dioxacycloundecino[3,2-c]pyridin-3(6H)-one] |  | 78%
6 | 13.6 nM | 0.99 nM |  | CCS(=O)(=O)c1ccc2c(c1)-c1cn(C)c(=O)cc1OCCCCc1cc(Cl)ccc1O2 [Example A-13, 11-chloro-17-(ethylsulfonyl)-2-methyl-6,7,8,9-tetrahydrodibenzo[4,5:7,8][1,6]dioxacyclododecino[3,2-c]pyridin-3(2H)-one] | 82% | 
7 | 12.8 nM | 1.3 nM |  | CCS(=O)(=O)Nc1ccc2c(c1)-c1cn(C)c(=O)cc1OCCCc1cc(Cl)ccc1O2 [Example A-5, N-(10-chloro-2-methyl-3-oxo-3,6,7,8-tetrahydro-2H-dibenzo[4,5:7,8][1,6]dioxacycloundecino[3,2-c]pyridin-16-yl)ethanesulfonamide] |  | 73%
8 | 5.69 nM | 0.93 nM |  | CCS(=O)(=O)Nc1ccc2c(c1)-c1cn(C)c(=O)cc1OCCCCc1cc(Cl)ccc1O2 [Example A-9, N-(11-chloro-2-methyl-3-oxo-2,3,6,7,8,9-hexahydrodibenzo[4,5:7,8][1,6]dioxacyclododecino[3,2-c]pyridin-17-yl)ethanesulfonamide] | 83% | 
9 | 8.77 nM | 15.1 nM |  | CCN1CCOc2cc(=O)n(C)cc2-c2cc(NS(=O)(=O)CC)ccc2Oc2ccc(Cl)cc2C1 [Example B-1, N-(11-chloro-8-ethyl-2-methyl-3-oxo-2,3,6,7,8,9-hexahydrodibenzo[f,i]pyrido[3,4-k][1,8,4]dioxazacyclododecin-17-yl)ethanesulfonamide] | 43% | 
10 | 19.2 nM | 2.85 nM |  | Cn1cc2c(cc1=O)OCCCCc1cc(Cl)ccc1Oc1ccc(CS(C)(=O)=O)cc1-2 [Example A-36, 11-chloro-2-methyl-17-((methylsulfonyl)methyl)-6,7,8,9-tetrahydrodibenzo[4,5:7,8][1,6]dioxacyclododecino[3,2-c]pyridin-3(2H)-one] | 68% | 
11 | 2.79 nM | 1.19 nM |  | CCS(=O)(=O)Nc1ccc2c(c1)-c1cn(C)c(=O)cc1OCCOCc1cc(Cl)ccc1O2 [Example B-5, N-(11-chloro-2-methyl-3-oxo-2,3,6,7-tetrahydro-9H-dibenzo[6,7:9,10][1,4,8]trioxacyclododecino[11,12-c]pyridin-17-yl)ethanesulfonamide] | 61% | 
12 | 19.1 nM | 2.16 nM |  | Cn1cc2c(cc1=O)OCCCc1cc(Cl)ccc1Oc1ccc(NS(C)(=O)=O)cc1-2 [Example A-12, N-(10-chloro-2-methyl-3-oxo-3,6,7,8-tetrahydro-2H-dibenzo[4,5:7,8][1,6]dioxacycloundecino[3,2-c]pyridin-16-yl)methanesulfonamide] | 47% | 
13 | 50.7 nM | 32.1 nM |  | CCS(=O)(=O)Nc1ccc2c(c1)-c1cn(C)c(=O)cc1OCCCCc1cccnc1O2 [Example A-46, N-(12-methyl-11-oxo-5,6,7,8,11,12-hexahydrobenzo[4,5][1,6]dioxacyclododecino[7,8-b:3,2-c′]dipyridin-15-yl)ethanesulfonamide] |  | 
14 | 257 nM | 10.5 nM |  | CCS(=O)(=O)Nc1ccc2c(c1)-c1cn(C)c(=O)cc1OCCNC(=O)c1cc(Cl)ccc1O2 [Example B-4, N-(11-chloro-2-methyl-3,9-dioxo-2,3,6,7,8,9-hexahydrodibenzo[f,i]pyrido[3,4-k][1,8,4]dioxazacyclododecin-17-yl)ethanesulfonamide] |  | 
15 |  |  |  | CCS(=O)(=O)Nc1ccc2c(c1)-c1cn(C)c(=O)cc1OCCCCc1cc(F)cc(F)c1O2 [Example A-14, N-(11,13-difluoro-2-methyl-3-oxo-2,3,6,7,8,9-hexahydrodibenzo[4,5:7,8][1,6]dioxacyclododecino[3,2-c]pyridin-17-yl)ethanesulfonamide] | 77% | 
16 | 23.7 nM | 6.09 nM |  | Cn1cc2c(cc1=O)OCCCCc1cc(Cl)ccc1Oc1ncc(CS(C)(=O)=O)cc1-2 [Example A-40, 11-chloro-2-methyl-17-((methylsulfonyl)methyl)-6,7,8,9-tetrahydrobenzo[11,12][1,6]dioxacyclododecino[2,3-b:4,5-c′]dipyridin-3(2H)-one] |  | 
17 | 5.95 nM | 2.14 nM |  | CCS(=O)(=O)Nc1ccc2c(c1)-c1cn(C)c(=O)cc1OCCN(C1CCC1)Cc1cc(Cl)ccc1O2 [Example B-14, N-(11-chloro-8-cyclobutyl-2-methyl-3-oxo-2,3,6,7,8,9-hexahydrodibenzo[f,i]pyrido[3,4-k][1,8,4]dioxazacyclododecin-17-yl)ethanesulfonamide] |  | 
18 | 25.1 nM | 9.45 nM |  | CCS(=O)(=O)Nc1ccc2c(c1)-c1cn(C)c(=O)cc1OCCNCc1cc(Cl)ccc1O2 [Example B-11, N-(11-chloro-2-methyl-3-oxo-2,3,6,7,8,9-hexahydrodibenzo[f,i]pyrido[3,4-k][1,8,4]dioxazacyclododecin-17-yl)ethanesulfonamide] |  | 
19 | 4.31 nM | 1.32 nM |  | CCS(=O)(=O)Nc1ccc2c(c1)-c1cn(C)c(=O)cc1OCCCCc1cc(F)c(F)cc1O2 [Example A-48, N-(11,12-difluoro-2-methyl-3-oxo-2,3,6,7,8,9-hexahydrodibenzo[4,5:7,8][1,6]dioxacyclododecino[3,2-c]pyridin-17-yl)ethanesulfonamide] |  | 
20 | 16.2 nM | 2.45 nM |  | CCS(=O)(=O)Nc1ccc2c(c1)-c1cn(C)c(=O)cc1OCCCCCc1cc(Cl)ccc1O2 [Example A-19, N-(12-chloro-2-methyl-3-oxo-3,6,7,8,9,10-hexahydro-2H-dibenzo[4,5:7,8][1,6]dioxacyclotridecino[3,2-c]pyridin-18-yl)ethanesulfonamide] |  | 
